{"source": "patent US4026888A", "about": "“Certain derivatives of particular 3-thiolated cephalosporins” (priority 1976, dated 1977)", "key": {"Str. pyogenes A9604": {"tested_on": "Str. pyogenes A9604", "assay": "Antibiotic activity in nutrient broth (MIC)", "assay_type": "cell-based", "settings": "45% AAB + 5% serum + 50% broth, derivatives adjusted for BL-S640 content", "text": "(§1) Antibiotic Activity In Nutrient Broth\n* 45% AAB+ 5% serum+ 50% broth listed above.\n(§2) ** Dilution of overnight broth culture.\n(§3) Antibiotic Spectrum Nutrient Broth\n* 45% AAB + 5% serum + 50% broth\n(§4) Antibiotic Spectrum in Nutrient Broth\n*45% AAB + 5% serum + 50% broth listed above."}, "[1]": {"assay": "Mouse blood levels after intramuscular administration", "assay_type": "in vivo", "settings": "IM 10 mg./kg.", "method": "Mouse Blood Levels After Intramuscular Administration\nof 10 mg./kg. Body Weight\nThe compounds were dissolved in 0.01% phosphate buffer.\nMouse Blood Levels After IM\nAdministration of 10 mg./kg. Body Weight\nThe compounds were prepared in 0.01% phosphate\nThe compounds were prepared in 0.01% phosphate buffer."}, "P. mirabilis A9900": {"tested_on": "P. mirabilis A9900", "assay": "IM PD50 in mice", "assay_type": "in vivo", "settings": "Proteus mirabilis", "text": "Comparative IM PD50 Values of\n(§5) BL-S640 Derivatives in Mice"}, "Ps. aeruginosa A9843A": {"tested_on": "Ps. aeruginosa A9843A", "assay": "Antibiotic activity in nutrient broth (MIC)", "assay_type": "cell-based", "settings": "Pseudomonas aeruginosa", "text": "as §1, §2, §3, §4"}, "K. pneumoniae A15130": {"tested_on": "K. pneumoniae A15130", "assay": "Antibiotic activity in nutrient broth (MIC)", "assay_type": "cell-based", "settings": "derivatives adjusted for BL-S640 content", "text": "as §1, §2, §3, §4"}, "Ent. cloacae A9659": {"tested_on": "Ent. cloacae A9659", "assay": "Antibiotic activity in nutrient broth (MIC)", "assay_type": "cell-based", "settings": "derivatives adjusted for BL-S640 content", "text": "as §1, §2, §3, §4"}, "S. aureus Smith A9537": {"tested_on": "S. aureus Smith A9537", "assay": "Antibiotic activity in nutrient broth (MIC)", "assay_type": "cell-based", "settings": "+ 50% serum, derivatives adjusted for BL-S640 content", "text": "as §1, §2, §3, §4"}, "E. coli Juhl A15119": {"tested_on": "E. coli Juhl A15119", "assay": "Antibiotic activity in nutrient broth (MIC)", "assay_type": "cell-based", "settings": "derivatives adjusted for BL-S640 content", "text": "as §1, §2, §3, §4"}, "Ent. cloacae A9657": {"tested_on": "Ent. cloacae A9657", "assay": "Antibiotic activity in nutrient broth (MIC)", "assay_type": "cell-based", "settings": "derivatives adjusted for BL-S640 content", "text": "as §1, §2, §3, §4"}, "Pr. mirabilis A9900": {"tested_on": "Pr. mirabilis A9900", "assay": "Antibiotic activity in nutrient broth (MIC)", "assay_type": "cell-based", "settings": "Proteus mirabilis, inoculum 10^-4, derivatives adjusted for BL-S640 content", "text": "as §1, §2, §3, §4"}, "Ent. cloacae A9656": {"tested_on": "Ent. cloacae A9656", "assay": "Antibiotic activity in nutrient broth (MIC)", "assay_type": "cell-based", "settings": "Enterobacter cloacae, derivatives adjusted for BL-S640 content", "text": "as §1, §2, §3, §4"}, "E. coli A9675": {"tested_on": "E. coli A9675", "assay": "Antibiotic activity in nutrient broth (MIC)", "assay_type": "cell-based", "settings": "derivatives adjusted for BL-S640 content", "text": "as §1, §2, §3, §4"}, "Ser. marcescens A20019": {"tested_on": "Ser. marcescens A20019", "assay": "Antibiotic activity in nutrient broth (MIC)", "assay_type": "cell-based", "settings": "Serratia marcescens, derivatives adjusted for BL-S640 content", "text": "as §1, §2, §3, §4"}, "Sal. enteritidis A9531": {"tested_on": "Sal. enteritidis A9531", "assay": "Antibiotic activity in nutrient broth (MIC)", "assay_type": "cell-based", "settings": "inoculum 10^-4, derivatives adjusted for BL-S640 content", "text": "as §1, §2, §3, §4"}, "K. pneumoniae A9977 [2]": {"tested_on": "K. pneumoniae A9977", "assay": "Antibiotic activity in nutrient broth (MIC)", "assay_type": "cell-based", "settings": "Klebsiella pneumoniae, inoculum 10^-4, derivatives adjusted for BL-S640 content, read-out: MIC", "text": "as §1, §2, §3, §4"}, "S. aureus BX1633 A9606": {"tested_on": "S. aureus BX1633 A9606", "assay": "Antibiotic activity in nutrient broth (MIC)", "assay_type": "cell-based", "settings": "derivatives adjusted for BL-S640 content", "text": "as §1, §2, §3, §4"}, "E. coli A15119": {"tested_on": "E. coli A15119", "assay": "Oral PD50 in mice", "assay_type": "in vivo", "settings": "Escherichia coli, A15119, po, 3.5 h, read-out: PD50", "method": "(§6) Comparative Oral PD50 Values of\nas §5\n(§7) *Mice were treated at 1 and 3.5 hours post-challenge."}, "S. pyogenes A9604": {"tested_on": "S. pyogenes A9604", "assay": "Oral PD50 in mice", "assay_type": "in vivo", "settings": "Streptococcus pyogenes, mice treated at 1 and 3.5 hours post-challenge", "method": "as §6, §5, §7"}, "K. pneumoniae A9977 [3]": {"tested_on": "K. pneumoniae A9977", "assay": "Oral PD50 in mice", "assay_type": "in vivo", "settings": "Klebsiella pneumoniae, A9977; oral; mice treated at 1 and 3.5 hours post-challenge; read-out: PD50", "method": "as §6, §5, §7"}, "P. mirabilis A9707": {"tested_on": "P. mirabilis A9707", "assay": "Oral PD50 in mice", "assay_type": "in vivo", "settings": "Proteus mirabilis, mice treated at 1 and 3.5 hours post-challenge", "method": "as §6, §5, §7"}, "[4]": {"settings": "mouse, blood, im, 10 mg/kg, Example 3, average of 3 experiments, read-out: Blood Levels"}, "[5]": {"settings": "mouse, blood, im, 10 mg/kg, Table III, 0.01% phosphate buffer, read-out: Mouse Blood Levels"}}, "note": "Where two headings read alike, the source gives them in different places.", "data": [{"smiles": "N[C@@H](C(=O)N[C@@H]1C(=O)N2C(C(=O)O)=C(CSc3cnn[nH]3)CS[C@H]12)c1ccc(O)cc1", "note": "[BL-S640, 7-[D-α-amino-α-(p-hydroxyphenyl)acetamido]-3-(1,2,3-triazol-5-ylthiomethyl)-3-cephem-4-carboxylic acid, reference compound]", "values": [{"measurement": "MIC", "setting": "Str. pyogenes A9604; Streptococcus pyogenes, A9604, inoculum 10^-3, read-out: MIC", "value": 0.06, "unit": "µg/mL"}, {"measurement": "MIC", "setting": "Str. pyogenes A9604; inoculum 10^-3", "value": 0.03, "unit": "µg/mL"}, {"measurement": "Blood Levels", "setting": "[1]; Example 2, 1 hr, 0.01% phosphate buffer, 16 or 32 mice", "value": 9500, "unit": "ng/mL"}, {"measurement": "concentration at 0.25 h", "setting": "[1]; [4]", "value": 12700, "unit": "ng/mL"}, {"measurement": "concentration at 0.5 h", "setting": "[1]; mouse, blood, im, 10 mg/kg, Example 3, 0.5 hr, average of 3 experiments, read-out: Blood Levels", "value": 11500, "unit": "ng/mL"}, {"measurement": "concentration at 1 h", "setting": "[1]; mouse, blood, im, 10 mg/kg, Example 3, 1 hr, average of 3 experiments, read-out: Blood Levels", "value": 8000, "unit": "ng/mL"}, {"measurement": "concentration at 1.5 h", "setting": "[1]; [4]", "value": 5700, "unit": "ng/mL"}, {"measurement": "concentration at 0.25 h", "setting": "[1]; [5]", "value": 16300, "unit": "ng/mL"}, {"measurement": "concentration at 1.5 h", "setting": "[1]; [5]", "value": 6300, "unit": "ng/mL"}, {"measurement": "ED50", "setting": "P. mirabilis A9900", "value": 1.6, "unit": "mg/kg"}, {"measurement": "MIC", "setting": "Ps. aeruginosa A9843A", "value": "> 125", "unit": "µg/mL"}, {"measurement": "MIC", "setting": "K. pneumoniae A15130; Klebsiella pneumoniae, A15130, inoculum 10^-4, read-out: MIC", "value": 2, "unit": "µg/mL"}, {"measurement": "MIC", "setting": "K. pneumoniae A15130; inoculum 10^-4", "value": 1, "unit": "µg/mL"}, {"measurement": "MIC", "setting": "Ent. cloacae A9659; Enterobacter cloacae, A9659, inoculum 10^-4, read-out: MIC", "value": 63, "unit": "µg/mL"}, {"measurement": "MIC", "setting": "Ent. cloacae A9659; inoculum 10^-4", "value": 32, "unit": "µg/mL"}, {"measurement": "MIC", "setting": "S. aureus Smith A9537; Staphylococcus aureus, SMITHA9537, inoculum 10^-4, read-out: MIC", "value": 4, "unit": "µg/mL"}, {"measurement": "MIC", "setting": "S. aureus Smith A9537; inoculum 10^-4", "value": 2, "unit": "µg/mL"}, {"measurement": "MIC", "setting": "E. coli Juhl A15119; Escherichia coli, JUHLA15119, inoculum 10^-4, read-out: MIC", "value": 1, "unit": "µg/mL"}, {"measurement": "MIC", "setting": "E. coli Juhl A15119; inoculum 10^-4", "value": 0.5, "unit": "µg/mL"}, {"measurement": "MIC", "setting": "Ent. cloacae A9657; Enterobacter cloacae, A9657, inoculum 10^-4, read-out: MIC", "value": 1, "unit": "µg/mL"}, {"measurement": "MIC", "setting": "Ent. cloacae A9657; inoculum 10^-4", "value": 0.5, "unit": "µg/mL"}, {"measurement": "MIC", "setting": "Pr. mirabilis A9900", "value": 0.5, "unit": "µg/mL"}, {"measurement": "MIC", "setting": "Ent. cloacae A9656; A9656, inoculum 10^-4", "value": "> 125", "unit": "µg/mL"}, {"measurement": "MIC", "setting": "Ent. cloacae A9656; A9656, inoculum 10^-4, read-out: MIC", "value": 63, "unit": "µg/mL"}, {"measurement": "MIC", "setting": "E. coli A9675; Escherichia coli, A9675, inoculum 10^-4, read-out: MIC", "value": 4, "unit": "µg/mL"}, {"measurement": "MIC", "setting": "E. coli A9675; inoculum 10^-4", "value": 2, "unit": "µg/mL"}, {"measurement": "MIC", "setting": "Ser. marcescens A20019; A20019, inoculum 10^-4", "value": "> 125", "unit": "µg/mL"}, {"measurement": "MIC", "setting": "Ser. marcescens A20019; A20019, inoculum 10^-4, read-out: MIC", "value": 63, "unit": "µg/mL"}, {"measurement": "MIC", "setting": "Sal. enteritidis A9531; Salmonella enterica, ENTERITIDIS, read-out: MIC", "value": 0.25, "unit": "µg/mL"}, {"measurement": "MIC", "setting": "Sal. enteritidis A9531", "value": 0.13, "unit": "µg/mL"}, {"measurement": "MIC", "setting": "K. pneumoniae A9977 [2]", "value": 0.5, "unit": "µg/mL"}, {"measurement": "MIC", "setting": "S. aureus BX1633 A9606; Staphylococcus aureus, BX1633A9606, inoculum 10^-2, read-out: MIC", "value": 4, "unit": "µg/mL"}, {"measurement": "MIC", "setting": "S. aureus BX1633 A9606; inoculum 10^-2", "value": 2, "unit": "µg/mL"}, {"measurement": "ED50", "setting": "E. coli A15119; oral, mice treated at 1 and 3.5 hours post-challenge", "value": 4.1, "unit": "mg/kg"}, {"measurement": "ED50", "setting": "E. coli A15119", "value": 1.4, "unit": "mg/kg"}, {"measurement": "ED50", "setting": "S. pyogenes A9604", "value": 0.4, "unit": "mg/kg"}, {"measurement": "ED50", "setting": "K. pneumoniae A9977 [3]", "value": 1.6, "unit": "mg/kg"}, {"measurement": "ED50", "setting": "P. mirabilis A9707", "value": 2.4, "unit": "mg/kg"}]}]}
